According to US20140248373A1, “ENHANCED PERFORMANCE HYDROGEN PEROXIDE FORMULATIONS COMPRISING PROTEINS AND SURFACTANTS” (Advanced BioCatalytics Corporation, priority 2008, published 2014):
Where two headings read alike, the source gives them in different places.

Columns and labels:
[1] = Oxidation-reduction potential by Square Wave Voltammetry (SWVA); assay type: physicochemical; conditions: for Wave Height, I, mA / E, mV vs. Ag/AgCl: SWVA; for E, mV vs. Ag/AgCl: absence of atmospheric oxygen
Protocol: The compatibility of H2O2 and the protein/surfactant system was assessed using two approaches. […] Second, H2O2 concentration was determined over various time periods, up to one year, in the mixtures of hydrogen peroxide and protein/surfactant mixture, by volumetric titration with standardized permanganate solution. ORP measurements were conducted using Square Wave Voltammetry (SWVA) in a glove box, in the absence of atmospheric oxygen. Solutions 27% and 15% H2O2 with and without addition of 5% protein/surfactant were taken for these experiments.

[2] = test system: S. aureus; conditions: for S. aureus Sample (CFU/mL): 5% Horse serum
Protocol: (§1) The following tests were run with PS-2 at a 4% concentration (0.72% total surfactant), H2O2 at 3% and phosphoric acid at <0.1% to pH 2.9, Versene (EDTA) at 0.1%. Test methodology was Suspension Based, Quantitative Time-Kill at 22° C., but with 5% Horse serum added to show the effects of organic contaminant on antimicrobial activity. A control of 3% H2O2 was run in this example.

[3] = test system: E. Coli; conditions: for E. Coli Sample (CFU/mL): 5% Horse serum
Protocol: as §1

[4] = exposure time of up to 10 minutes, organic contamination

## OO [Composition H2O2, hydrogen peroxide]
[1]; NHE
  Potential (apex of current wave): about 1.8 V
[1]; against saturated silver/silver chloride electrode
  Potential (apex of current wave): about 1.6 V

## OO [Control, 3% H2O2, hydrogen peroxide]
[2]; 1 min
  S. aureus Sample (CFU/mL): 1.20E+07 CFU/mL
[2]; 5 min
  S. aureus Sample (CFU/mL): 8.80E+06 CFU/mL
[2]; 10 min
  S. aureus Sample (CFU/mL): 3.86E+06 CFU/mL
[2]; "Time Zero"
  S. aureus Sample (CFU/mL): 1.04E+07 CFU/mL
[2]; [4]
  log reduction, gram positive pathogen (S. aureus): 1 log
[3]; 1 min
  E. Coli Sample (CFU/mL): 1.71E+07 CFU/mL
[3]; 5 min
  E. Coli Sample (CFU/mL): 6.80E+06 CFU/mL
[3]; 10 min
  E. Coli Sample (CFU/mL): 1.36E+06 CFU/mL
[3]; "Time Zero"
  E. Coli Sample (CFU/mL): 1.99E+07 CFU/mL
[3]; [4]
  log reduction, gram negative pathogen (E. Coli): 1 log

## OO [H2O2, 15%, hydrogen peroxide]
[1]
  Wave Height, I, mA: 85 mA
  E, mV vs. Ag/AgCl: 1,550 mV

## OO [H2O2, 27%, hydrogen peroxide]
[1]
  Wave Height, I, mA: 92 mA
  E, mV vs. Ag/AgCl: 1,600 mV
[1]; listed as pure H2O2
  Wave Height, I, mA: about 92 mA
